Test results: PubChem BioAssay AID540252 (Sanford-Burnham Center for Chemical Genomics, 2011)
Calls of active or inactive are those of the source. The rule behind the calls is not given here.

What follows are compounds tested against glucose-6-phosphate dehydrogenase-6-phosphogluconolactonase (Plasmodium falciparum 3D7) (assay: inhibition of P. falciparum G6PD activity – biochemical, end-point NADPH detection, orthogonal assay, dose response (AID 540252)). Details: purified PfG6PD enzyme, NADPH direct detection.
In the case of `COc1ccc(N2CSC3=C(C#N)C(c4ccc(OC)c(OC)c4)CC(=O)N3C2)c(OC)c1` (stereo not given), the IC50 is reported as > 80 µM (inactive). For `CC(=O)Nc1ccc2c(c1)Cc1cc(N3C(=O)C=CC3=O)ccc1-2`, the IC50 was 23.7 µM. `c1ccc(SSc2ccccn2)nc1` was tested, and the IC50 was 60.8 µM. For `O=C(NC1=CC(=O)c2ccccc2C1=O)c1ccccc1`, the IC50 was > 80 µM (inactive). Work on `N#Cc1ccc(N=c2ssnc2Cl)cc1` yielded an IC50 of 49 µM. With `Cc1nnc(SCC(=O)c2cc(C)n(-c3ccc4c(c3)OCO4)c2C)s1` the IC50 was > 80 µM (inactive). For `Cc1ccc(NC(=O)c2cc(N3C(=O)C=CC3=O)ccc2N2CCOCC2)cc1`, the IC50 was > 80 µM (inactive). `N#CC(C#N)=C1C=CC=CN1/C(=C\c1ccccc1Cl)C(=O)c1ccccc1` was tested, and the IC50 was > 80 µM (inactive). For `COC(=O)CCC(=O)Nc1sc(Cc2ccccc2)c(C)c1C(N)=O`, the IC50 was > 80 µM (inactive). For `CCc1cc(-c2n[nH]c(C)c2-c2nc3ccccc3n2C)c(O)cc1O`, the IC50 was > 80 µM (inactive). For `CN(C)c1ccc(C=c2c3cc(O)ccc3n3c2cc(-c2ccccc2)[n+]3C)cc1`, the IC50 was > 80 µM (inactive). In the case of `CCS(=O)(=O)N1CCN(c2ccc([N+](=O)[O-])c(NC(C)c3ccccc3)c2)CC1` (stereo not given), the IC50 is reported as > 80 µM (inactive). `CCN1CCN(C(=S)c2ccc(O)cc2)CC1` was tested, and the IC50 was > 80 µM (inactive). For `CCOC(=O)Cc1cc(=O)n2[nH]c(C(C)(C)C)cc2n1`, the IC50 was > 80 µM (inactive). For `Cc1ccc(-n2c(N)c(C(=O)N3CCN(C)CC3)sc2=S)cc1`, the IC50 was 55.2 µM. For `CN(C)c1ccc(Cc2cc3c(O)ccc(O)c3cc(Cc3ccc(N(C)C)cc3)c2=O)cc1`, the IC50 was > 80 µM (inactive). With `N#Cc1c(C#N)c(SSc2c(C#N)c(C#N)c(N)n2-c2ccccc2)n(-c2ccccc2)c1N` the IC50 was > 80 µM (inactive). `O=c1[nH]nc(CNc2ccc(O)cc2)c2ccccc12` was tested, and the IC50 was > 80 µM (inactive). For `CN(C)c1nc(=NCc2cccs2)ss1`, the IC50 was > 80 µM (inactive). With `Cc1ccc(NC(=O)Cn2sc3nc(C)cc(C)c3c2=O)c(Cl)c1` the IC50 was > 80 µM (inactive). With `Nc1ccc(N(CCO)CCO)cc1` the IC50 was > 80 µM (inactive). For `O=C(Nc1ccc(N2CCCC2)cc1)c1cccc(-c2cc3ccccc3oc2=O)c1`, the IC50 was > 80 µM (inactive). With `Clc1ccc2nc(-c3ccc(Br)s3)cn2c1` the IC50 was > 80 µM (inactive). With `COc1cc(/C=C2\SC(c3ccc(C)cc3)=NC2=O)ccc1O` the IC50 was > 80 µM (inactive). With `COc1ccc(C2(CNC(=O)c3ccc(OC)c([N+](=O)[O-])c3)CCCCC2)cc1OC` the IC50 was > 80 µM (inactive). In the case of `Cc1ccc(NC(=O)Cn2sc3ccccc3c2=O)cc1`, the IC50 is reported as 15 µM. Compound `Cc1ccc(-n2sc3ccccc3c2=O)cc1` has an IC50 of 24.8 µM. `C=CCc1c(C)[nH]c(=S)c(C#N)c1C` was tested, and the IC50 was > 80 µM (inactive). For `O=C1C=CC(=O)N1CCCCCCCCCCN1C(=O)C=CC1=O`, the IC50 was > 80 µM (inactive). With `COc1ccc(/C=C/c2nc3ccccc3n2C)cc1` the IC50 was > 80 µM (inactive). With `O=C(CNC(=O)c1ccc(Br)cc1)NCC(=O)OCC(=O)c1ccc([N+](=O)[O-])cc1` the IC50 was > 80 µM (inactive). `Clc1nssc1=Nc1nncs1` showed an IC50 of 35.6 µM. With `CC(C)c1nnc(NC(=O)c2cc3ccccc3o2)s1` the IC50 was > 80 µM (inactive). `Cc1c(/C=C/C(=O)c2ccc(Cl)s2)cnn1C` was tested, and the IC50 was > 80 µM (inactive). In the case of `CCCNC(=O)Cn1sc2nc(C)cc(C)c2c1=O`, the IC50 is reported as > 80 µM (inactive). For `O=C(CBr)c1ccc([N+](=O)[O-])c(CS(=O)(=O)c2ccc(Cl)cc2)c1`, the IC50 was 42.5 µM. With `O=[N+]([O-])c1cccc(SSc2cccc([N+](=O)[O-])c2)c1` the IC50 was 45.3 µM. With `Cc1ccc(NNS(=O)(=O)c2ccc(C)cc2)cc1` the IC50 was > 80 µM (inactive). With `CCc1ccc(S(=O)(=O)Nc2cc(SCC(=O)O)c(O)c3ccccc23)cc1` the IC50 was > 80 µM (inactive). For `Cc1[nH]c(=S)c(C#N)c(C)c1CCC#N`, the IC50 was > 80 µM (inactive). With `O=C(CCC(=O)Nc1ccccc1Cl)N/N=C/c1ccccc1` the IC50 was > 80 µM (inactive). For `CN(C)c1ccc2nc3ccc(=O)cc-3sc2c1`, the IC50 was > 80 µM (inactive). In the case of `O=C(CSc1nc2ccc(Cl)cc2[nH]1)NC1CCCc2ccccc21` (stereo not given), the IC50 is reported as > 80 µM (inactive). With `COc1ccccc1N1CSC2=C(C#N)C(c3ccc(SC)cc3)CC(=O)N2C1` (stereo not given) the IC50 was > 80 µM (inactive). `CCN(CC)c1nc(N)nc(NS(=O)(=O)c2ccc(Cl)cc2)n1` was tested, and the IC50 was > 80 µM (inactive). In the case of `CCN(CC)C(=S)SSC(=S)N(CC)CC`, the IC50 is reported as > 80 µM (inactive). For `CCOc1ccccc1NC(=O)CCCc1nc2ccccc2c(=O)[nH]1`, the IC50 was > 80 µM (inactive). With `CCOc1cc(NCc2ccccc2)c2ncn(C(C)C)c2c1` the IC50 was > 80 µM (inactive). `CC(=NNC(=S)N1CCN(c2ccccn2)CC1)c1nccs1` was tested, and the IC50 was > 80 µM (inactive). `COc1ccc(NC(C)C(=O)N/N=C/c2cc(Br)ccc2OC)cc1` (stereo not given) was tested, and the IC50 was > 80 µM (inactive). In the case of `CN(C)c1ncc(C2=C(Cl)C(=O)C(N3CCCC3)=C(Cl)C2=O)s1`, the IC50 is reported as > 80 µM (inactive). With `Cc1ccc(-c2csc(NC(=O)c3ccc(Br)cc3)c2C(=O)O)cc1` the IC50 was > 80 µM (inactive). For `O=C(CSc1nc2ccccc2[nH]1)NC1CCCc2ccccc21` (stereo not given), the IC50 was > 80 µM (inactive). With `O=C1C=CC(=O)N1c1ccc(-c2nc3ccccc3o2)cc1` the IC50 was > 80 µM (inactive). `CCOC(=O)Nc1ccc(NCc2ccc(F)cc2)nc1N` was tested, and the IC50 was > 80 µM (inactive). `Cc1ccccc1OCC(=O)NCC(=O)OCC(=O)c1ccc([N+](=O)[O-])cc1` was tested, and the IC50 was 50.1 µM. In the case of `O=[N+]([O-])c1c(NCCCO)cc(Sc2nc3ccccc3s2)c2nonc12`, the IC50 is reported as > 80 µM (inactive). In the case of `Cc1cc(C)c2c(=O)n(CC(=O)Nc3ccc(Cl)cc3)sc2n1`, the IC50 is reported as > 80 µM (inactive). For `COc1ccc(N2C(=O)/C(=C/c3cccs3)NC2=S)cc1`, the IC50 was > 80 µM (inactive). For `Cc1cccc(NC2=C(NC(=O)c3ccccc3)C(=O)c3ccccc3C2=O)c1`, the IC50 was > 80 µM (inactive).
